According to patent US20210022340A1, “USE OF PYRIDINE UREA COMPOUND HAVING SNAIL-KILLING ACTIVITY” (priority 2017, published 2021):
In brackets after ≈: the same amount, converted by molar mass.

Columns and labels:
Oncomelania hupensis = experiment: Snail-killing activity against Oncomelania hupensis (immersion method); type: in vivo; conditions: 24 h, 24 hours of immersion, 25° C., linear interpolation, read-out: Oncomelania hupensis the LC50 values at the 24th hour
Procedure: (1): Snail-Killing Activity Against Oncomelania hupensis
Oncomelania hupensis was used as a tested sample and tested by the immersion method. Operation process: Weigh various samples accurately (compounds of any of Example 1 to Example 16), dissolve each sample with 0.2 mL of N,N-dimethylformamide, and dilute each sample to 0.2 mg/L of the drug solution with dechlorinated tap water. Put 30 snails in each beaker and pour 100 ml of the above-mentioned drug solution into each beaker. And cover the plastic gauze on the beaker to prevent the snails from climbing to the liquid surface. Place the above beakers accommodating the drug solution and snails in the incubator under the conditions which is at 25° C. constant temperature, and the humidity is maintained at 60%. and the light is fully. After 24 hours of immersion in the incubator, the drug solution is poured, and each sample is washed for 3 times by using water. Then, 15 mL of dechlorinated tap water is added to resuscitate each sample for 1 hour. Each sample is resuscitated for 1 hour again after 24 hours, and then activity of the snails is determined by knocking after 24 hours. Each sample was set to repeat 3 times. The tested concentrations were respectively 0.1 mg/L, 0.5 mg/L, 1 mg/L, 2 mg/L, 5 mg/L, and 10 mg/L. A linear interpolation method was used to draw a curve of the percentage of death at the 24th hour relative to the tested concentrations of the prepared compounds, thereby the LC50 values at the 24th hour are obtained.
A comparison was made with 0.2 mg/L of niclosamide (positive control) and water containing 0.2 mL/L of N,N-dimethylformamide (blank control).

Acute toxicity to fish = type: in vivo, Danio rerio; conditions: Danio rerio, in vivo, pH 7, 96 hour test cycle, 23±1° C., linear interpolation; read-out: Danio rerio the LC50 values at the 96th hour
Procedure: (§1) (2): Study on Acute Toxicity to Fish
(§2) Tested substance: Compound of any of Example 1 to Example 16 of which tested concentrations were respectively 0 mg/L, 20 mg/L, 40 mg/L, 60 mg/L, 80 mg/L, and 100 mg/L.
(§3) Tested fish species: Danio rerio of which body length was 20±1 mm and weight was 0.3±0.1 g.
(§4) Test process: The tested fish was domesticated in continuous aerated diluted water for 7 days before the test. The water quality and lighting conditions during the domestication were consistent with the conditions during the test. Feeding was stopped 24 hours before the test. […] The water temperature during the test was constant at 23±1° C. The dissolved oxygen content during the test should be higher than 60% of the air saturation value, and the pH value was 7.0±0.2. The test cycle is 96 hours. The poisoning symptoms and mortality of the tested fish were observed and recorded at any time within 3 hours to 6 hours after starting the test, and then the poisoning symptoms and mortality of the tested fish at different concentrations were observed and recorded at 24th hour, 48th hour, 72th hour, and 96th hour. The criterion for judging dead fish is to knock the tail of the fish with glasses. If the fish had no action, it is judged that the fish was dead.
(§5) A linear interpolation method was used to draw the curve of the percentage of death relative to the tested concentrations of the compound prepared in Example 4 at 96 hour, thereby the LC50 values at 96th hour are obtained, which was treated with water as a blank control. The LC50 value of the other compound at 96th hour was obtained in this way.

Danio rerio [1] = experiment: Acute toxicity to fish; type: in vivo; conditions: applied for 1 hour
Danio rerio [2] = experiment: Acute toxicity to fish; type: in vivo; conditions: 96 hour test cycle, 23±1° C., linear interpolation
Procedure: as §1, §2, §3, §4, §5

| SMILES | LC50 (Oncomelania hupensis) | LC50 at 96 h (Acute toxicity to fish) | fish death (Danio rerio [1]) | Danio rerio the LC50 values at the 96th hour (Danio rerio [2]) |
| --- | --- | --- | --- | --- |
| O=C(Nc1cccnc1)Nc1ccc(F)cc1F [Compound 1] | 5 mg/L (≈ 20.1 µM) | > 100 mg/L |  |  |
| O=C(Nc1ccc(OC(F)(F)F)cc1)Nc1cccnc1 [Compound 2] | 3.5 mg/L (≈ 11.8 µM) | > 100 mg/L |  |  |
| O=C(Nc1cccnc1)Nc1ccccc1F [Compound 3] | 4.8 mg/L (≈ 20.8 µM) | > 100 mg/L |  |  |
| O=C(Nc1cccnc1)Nc1cccc(Cl)c1 [Compound 4] | 5.8 mg/L (≈ 23.4 µM) | > 100 mg/L |  |  |
| O=C(Nc1cccnc1)Nc1ccc(F)cc1C(F)(F)F [Compound 5] | 8.9 mg/L (≈ 29.7 µM) | > 100 mg/L |  |  |
| O=C(Nc1cccnc1)Nc1ccccc1Cl [Compound 6] | 9.2 mg/L (≈ 37.1 µM) | > 100 mg/L |  |  |
| O=C(Nc1cccnc1)Nc1ccc(Cl)cc1C(F)(F)F [Compound 7] | 6.7 mg/L (≈ 21.2 µM) | > 100 mg/L |  |  |
| O=C(Nc1cccnc1)Nc1ccc(Cl)cc1Cl [Compound 8] | 5.8 mg/L (≈ 20.6 µM) | > 100 mg/L |  |  |
| O=C(Nc1cccnc1)Nc1cc(F)cc(F)c1 [Compound 9] | 4.3 mg/L (≈ 17.3 µM) | > 100 mg/L |  |  |
| O=C(Nc1ccc([N+](=O)[O-])cc1)Nc1cccnc1 [Compound 10] | 3.8 mg/L (≈ 14.7 µM) | > 100 mg/L |  |  |
| O=C(Nc1cccnc1)Nc1cccc(F)c1 [Compound 11] | 4.9 mg/L (≈ 21.2 µM) | > 100 mg/L |  |  |
| Cc1cccc(NC(=O)Nc2cccnc2)c1 [Compound 12] | 8.2 mg/L (≈ 36.1 µM) | > 100 mg/L |  |  |
| O=C(Nc1ccc(Br)cc1)Nc1cccnc1 [Compound 13] | ~0.5 mg/L (≈ 1.71 µM) | 15 mg/L (≈ 51.3 µM) |  |  |
| O=C(Nc1ccc(Cl)cc1)Nc1cccnc1 [Compound 14] | ~0.5 mg/L (≈ 2.02 µM) | 15 mg/L (≈ 60.6 µM) |  |  |
| Cc1ccccc1NC(=O)Nc1cccnc1 [Compound 15] | 7.2 mg/L (≈ 31.7 µM) | > 100 mg/L |  |  |
| Cc1ccc(NC(=O)Nc2cccnc2)cc1 [Compound 16] | 8.1 mg/L (≈ 35.6 µM) | > 100 mg/L |  |  |
| O=C(Nc1ccc([N+](=O)[O-])cc1Cl)c1cc(Cl)ccc1O [niclosamide, reference compound] | 0.6 mg/L (≈ 1.83 µM) | 0.21 mg/L (≈ 0.642 µM) | all fish is resulted in almost death | 0.2 mg/L |
